Values after ≈ are worked out from the molar mass of the structure shown.
Assays:
[1] = Kinetic solubility of the compound at pH 7.4; assay type: physicochemical; conditions: buffer, read-out: Kinetic_solubility
[2] = Lipophilicity, logD of the compound at pH 7.4 by shake-flask method; assay type: physicochemical; conditions: buffer
[3] = target: T1, Hepatocyte growth factor activator serine protease (Homo sapiens, UniProt Q04756); experiment: Inhibition of human recombinant hepatocyte growth factor activator using H2N(EEdansyl)GKQLRVVNGG (KDabcyl)-NH2 as substrate by fluorometric analysis; assay type: single protein
T1 sequence (Q04756 whole entry): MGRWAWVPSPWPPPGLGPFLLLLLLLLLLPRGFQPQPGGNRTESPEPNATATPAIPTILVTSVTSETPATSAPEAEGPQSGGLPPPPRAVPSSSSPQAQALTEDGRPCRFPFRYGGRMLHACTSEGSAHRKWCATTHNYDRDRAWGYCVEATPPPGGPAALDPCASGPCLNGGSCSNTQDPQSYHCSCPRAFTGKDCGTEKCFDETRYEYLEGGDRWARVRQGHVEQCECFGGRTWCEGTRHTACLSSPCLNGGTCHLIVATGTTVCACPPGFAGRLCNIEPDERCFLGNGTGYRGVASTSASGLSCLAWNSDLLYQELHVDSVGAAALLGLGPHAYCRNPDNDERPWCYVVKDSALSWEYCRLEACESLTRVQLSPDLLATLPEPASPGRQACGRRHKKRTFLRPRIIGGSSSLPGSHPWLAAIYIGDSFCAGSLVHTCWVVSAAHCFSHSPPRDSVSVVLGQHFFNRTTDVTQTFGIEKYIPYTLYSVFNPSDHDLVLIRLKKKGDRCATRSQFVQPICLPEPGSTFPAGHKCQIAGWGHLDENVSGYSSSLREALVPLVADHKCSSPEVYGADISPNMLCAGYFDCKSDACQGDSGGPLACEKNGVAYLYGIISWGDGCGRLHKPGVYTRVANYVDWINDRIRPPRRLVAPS

Serine protease hepsin = Serine protease hepsin (Homo sapiens, UniProt P05981); experiment: Inhibition of human recombinant hepsin using H2N(EEdansyl)GKQLRVVNGG (KDabcyl)-NH2 as substrate by fluorometric analysis
Serine protease hepsin, sequence (P05981 1-162 limits assumed): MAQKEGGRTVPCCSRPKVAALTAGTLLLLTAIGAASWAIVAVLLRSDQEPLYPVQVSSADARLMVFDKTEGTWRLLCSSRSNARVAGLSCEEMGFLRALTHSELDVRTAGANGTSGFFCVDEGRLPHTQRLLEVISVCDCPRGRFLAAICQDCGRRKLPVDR
Serine protease hepsin, sequence (P05981 163-417 limits assumed): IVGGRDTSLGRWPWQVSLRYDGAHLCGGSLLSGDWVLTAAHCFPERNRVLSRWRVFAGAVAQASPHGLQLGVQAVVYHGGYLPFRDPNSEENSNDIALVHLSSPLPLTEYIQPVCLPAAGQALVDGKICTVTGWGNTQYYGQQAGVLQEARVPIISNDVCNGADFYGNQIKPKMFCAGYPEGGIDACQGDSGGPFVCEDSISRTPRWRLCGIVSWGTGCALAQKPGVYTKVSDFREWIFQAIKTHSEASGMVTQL

Trypsin = Trypsin (Homo sapiens, UniProt P07477+P07478+P35030); experiment: Inhibition of human recombinant trypsin using H2N(EEdansyl)GKQLRVVNGG (KDabcyl)-NH2 as substrate by fluorometric analysis; assay type: protein assay
Coagulation factor X = Coagulation factor X (Homo sapiens, UniProt P00742); experiment: Inhibition of human recombinant factor 10a using H2N(EEdansyl)GKQLRVVNGG (KDabcyl)-NH2 as substrate by fluorometric analysis
Coagulation factor X, sequence (P00742 41-179 limits assumed): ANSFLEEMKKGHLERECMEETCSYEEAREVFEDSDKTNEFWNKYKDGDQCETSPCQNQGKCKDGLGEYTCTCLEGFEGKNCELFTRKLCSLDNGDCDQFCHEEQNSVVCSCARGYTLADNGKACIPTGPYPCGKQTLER
Coagulation factor X, sequence (P00742 235-488 limits assumed): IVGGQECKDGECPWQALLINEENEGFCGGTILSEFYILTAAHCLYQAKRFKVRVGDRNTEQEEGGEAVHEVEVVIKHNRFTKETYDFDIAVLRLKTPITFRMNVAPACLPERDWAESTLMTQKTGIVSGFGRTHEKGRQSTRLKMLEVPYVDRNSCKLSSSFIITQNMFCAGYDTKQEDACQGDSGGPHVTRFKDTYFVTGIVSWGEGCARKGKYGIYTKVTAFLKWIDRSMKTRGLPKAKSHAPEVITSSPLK

Prothrombin = Prothrombin (Homo sapiens, UniProt P00734); experiment: Inhibition of human recombinant thrombin using H2N(EEdansyl)GKQLRVVNGG (KDabcyl)-NH2 as substrate by fluorometric analysis
[4] = target: T2, Suppressor of tumorigenicity 14 protein (Homo sapiens, UniProt Q9Y5Y6); experiment: Inhibition of human recombinant matripase catalytic domain using H2N(EEdansyl)GKQLRVVNGG (KDabcyl)-NH2 as substrate by fluorometric analysis
T2 sequence (Q9Y5Y6 whole entry): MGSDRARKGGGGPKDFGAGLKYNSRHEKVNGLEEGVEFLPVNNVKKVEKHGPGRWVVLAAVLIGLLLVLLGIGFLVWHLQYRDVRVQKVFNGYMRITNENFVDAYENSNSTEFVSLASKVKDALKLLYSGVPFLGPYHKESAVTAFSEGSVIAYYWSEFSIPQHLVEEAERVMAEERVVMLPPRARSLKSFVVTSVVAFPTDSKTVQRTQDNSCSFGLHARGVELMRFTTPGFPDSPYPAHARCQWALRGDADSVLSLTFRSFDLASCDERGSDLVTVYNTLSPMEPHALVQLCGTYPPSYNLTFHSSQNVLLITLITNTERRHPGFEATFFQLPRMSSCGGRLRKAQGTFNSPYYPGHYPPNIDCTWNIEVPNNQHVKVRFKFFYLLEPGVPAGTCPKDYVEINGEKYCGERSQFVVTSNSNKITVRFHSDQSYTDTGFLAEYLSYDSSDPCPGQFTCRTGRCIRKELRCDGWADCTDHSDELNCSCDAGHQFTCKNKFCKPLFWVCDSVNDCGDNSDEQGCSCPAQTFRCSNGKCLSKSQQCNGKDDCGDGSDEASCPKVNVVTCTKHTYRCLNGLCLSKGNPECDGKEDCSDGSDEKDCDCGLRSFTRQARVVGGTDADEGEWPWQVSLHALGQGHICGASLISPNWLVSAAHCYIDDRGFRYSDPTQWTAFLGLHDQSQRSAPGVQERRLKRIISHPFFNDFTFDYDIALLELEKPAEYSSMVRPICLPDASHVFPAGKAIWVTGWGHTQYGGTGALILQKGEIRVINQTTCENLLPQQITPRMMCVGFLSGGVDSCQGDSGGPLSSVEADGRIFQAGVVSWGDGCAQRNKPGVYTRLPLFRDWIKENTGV

[5] = target: Hepatocyte growth factor activator/Serine protease hepsin/Suppressor of tumorigenicity 14 protein (Homo sapiens) (UniProt Q9Y5Y6+P05981+Q04756); experiment: Inhibition of matripase/hepsin/hepatocyte growth factor activator-mediated HGF activation in human 18Co fibroblasts assessed as scattering of human DU145 cells after 24 hrs by crystal violet staining method; assay type: cell-based
Hepatocyte growth factor activator/Serine protease hepsin/Suppressor of tumorigenicity 14 protein (Homo sapiens), sequence (P05981 whole entry, looked up, one chain of several): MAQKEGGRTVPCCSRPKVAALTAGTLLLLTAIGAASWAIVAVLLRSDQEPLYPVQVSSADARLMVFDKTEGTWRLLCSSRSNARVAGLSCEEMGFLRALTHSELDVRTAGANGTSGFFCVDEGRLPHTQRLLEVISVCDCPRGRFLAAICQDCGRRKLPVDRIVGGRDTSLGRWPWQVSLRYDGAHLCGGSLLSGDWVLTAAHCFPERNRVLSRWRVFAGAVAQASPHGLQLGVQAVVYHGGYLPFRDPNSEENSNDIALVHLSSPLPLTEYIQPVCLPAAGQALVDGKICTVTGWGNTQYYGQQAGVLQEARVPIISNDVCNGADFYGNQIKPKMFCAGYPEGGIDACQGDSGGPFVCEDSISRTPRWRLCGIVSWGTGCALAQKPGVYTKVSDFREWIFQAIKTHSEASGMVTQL

[6] = Half life in mouse liver microsomes by LC/MS analysis; assay type: ADME
[7] = Oral bioavailability in mouse at 5 mg/kg; assay type: ADME, organism-based; conditions: in vivo
[8] = Cmax in mouse at 5 mg/kg, po; assay type: ADME, organism-based; parameters: dose 5 mg/kg, route oral; conditions: in vivo
[9] = Half life in mouse at 1 mg/kg, iv; assay type: ADME, organism-based; conditions: in vivo
[10] = AUC in mouse at 5 mg/kg, po; assay type: ADME, organism-based; conditions: in vivo
[11] = Clearance in mouse at 1 mg/kg, iv; assay type: ADME, organism-based; conditions: in vivo
[12] = Half life in human liver microsomes by LC/MS analysis; assay type: ADME
[13] = AUC in mouse at 1 mg/kg, iv; assay type: ADME, organism-based; conditions: in vivo
[14] = Volume of distribution in mouse at 1 mg/kg, iv; assay type: ADME, organism-based; conditions: in vivo

| SMILES | solubility kinetic [1] | logD [2] | Ki [3] | Ki (Serine protease hepsin) | Ki (Trypsin) | Ki (Coagulation factor X) | Ki (Prothrombin) | Ki [4] | inhibition [5] | half-life [6] | bioavailability [7] | Cmax [8] | half-life [9] | AUC [10] | clearance [11] | half-life [12] | AUC [13] | Vd [14] |
| --- | --- | --- | --- | --- | --- | --- | --- | --- | --- | --- | --- | --- | --- | --- | --- | --- | --- | --- |
| N=C(N)c1cccc(N2CC(CNC(=O)c3ccccc3)CN(CC3CCN(Cc4ccccc4)CC3)C2=O)c1 (stereo unspecified) |  |  | 1100 nM | 1100 nM | 330 nM | 750 nM | > 100000 nM | 470 nM |  |  |  |  |  |  |  |  |  |  |
| CC1CN(CCC2CCN(Cc3ccccc3)CC2)C(=O)N(c2cccc(C(=N)N)c2)C1 (stereo unspecified) |  |  | 1110 nM | 2120 nM | 2770 nM | 400 nM | > 100000 nM | 510 nM |  |  |  |  |  |  |  |  |  |  |
| N=C(N)c1cccc(NC(=O)NC2CCN(Cc3ccccc3)CC2)c1 |  |  | 54600 nM | 53100 nM | 5300 nM | 5400 nM | > 100000 nM | 40500 nM |  |  |  |  |  |  |  |  |  |  |
| CC1CN(c2cccc(C(=N)N)c2)C(=O)N(C2CCN(Cc3ccccc3)CC2)C1 (stereo unspecified) |  |  | 9800 nM | 3400 nM | 780 nM | 240 nM | 35900 nM | 830 nM |  |  |  |  |  |  |  |  |  |  |
| N=C(N)c1cccc(N2CC(O)CN(CC3CCN(Cc4ccccc4)CC3)C2=O)c1 (stereo unspecified) | 47 µM (≈ 19.8 µg/mL) | < 2 | 880 nM | 210 nM | 390 nM | 850 nM | 21900 nM | 280 nM | Dose-dependent effect |  |  |  |  |  |  |  |  |  |
| CC1CN(c2ccc(C(=N)N)cc2)C(=O)N(C2CCN(Cc3ccccc3)CC2)C1 (stereo unspecified) |  |  | 46500 nM | 61200 nM | 35400 nM | 25500 nM | > 100000 nM | 48900 nM |  |  |  |  |  |  |  |  |  |  |
| COC1CN(CC2CCN(Cc3ccccc3)CC2)C(=O)N(c2cccc(C(=N)N)c2)C1 (stereo unspecified) | 47 µM (≈ 20.5 µg/mL) | < 2 | 2490 nM | 760 nM | 760 nM | 1230 nM | > 100000 nM | 810 nM |  |  |  |  |  |  |  |  |  |  |
| CC1CN(Cc2ccc(C(=N)N)cc2)C(=O)N(C2CCN(Cc3ccccc3)CC2)C1 (stereo unspecified) |  |  | 39600 nM | 20800 nM | 4800 nM | 22800 nM | 82200 nM | 15400 nM |  |  |  |  |  |  |  |  |  |  |
| CC1CN(Cc2cccc(C(=N)N)c2)C(=O)N(C2CCN(Cc3ccccc3)CC2)C1 (stereo unspecified) |  |  | > 100000 nM | 15100 nM | 4800 nM | 49400 nM | > 100000 nM | 13500 nM |  |  |  |  |  |  |  |  |  |  |
| N=C(N)c1cccc(N2CC(CNC(=O)Cc3ccccc3)CN(CC3CCN(Cc4ccccc4)CC3)C2=O)c1 (stereo unspecified) |  |  | 1080 nM | 310 nM | 590 nM | 1550 nM | > 100000 nM | 1510 nM |  |  |  |  |  |  |  |  |  |  |
| N=C(N)c1cccc(N2CC(OCc3ccccc3)CN(CC3CCN(Cc4ccccc4)CC3)C2=O)c1 (stereo unspecified) | 47 µM (≈ 24 µg/mL) | < 2 | 1920 nM | 760 nM | 550 nM | 920 nM | 29700 nM | 1540 nM |  |  |  |  |  |  |  |  |  |  |

Now those with a lower Ki [3], led by results:

| solubility kinetic [1] | logD [2] | Ki [3] | Ki (Serine protease hepsin) | Ki (Trypsin) | Ki (Coagulation factor X) | Ki (Prothrombin) | Ki [4] | inhibition [5] | half-life [6] | bioavailability [7] | Cmax [8] | half-life [9] | AUC [10] | clearance [11] | half-life [12] | AUC [13] | Vd [14] | SMILES |
| --- | --- | --- | --- | --- | --- | --- | --- | --- | --- | --- | --- | --- | --- | --- | --- | --- | --- | --- |
| 47 µM (≈ 24.7 µg/mL) | < 2 | 430 nM | 560 nM | 100 nM | 180 nM | 2130 nM | 850 nM |  |  |  |  |  |  |  |  |  |  | N=C(N)c1cccc(N2CC(COCc3ccccc3)CN(CC3CCN(Cc4ccccc4)CC3)C2=O)c1 (stereo unspecified) |
| 47 µM (≈ 21.1 µg/mL) | < 2 | 160 nM | 920 nM | 210 nM | 200 nM | 8100 nM | 850 nM | Dose-dependent effect |  |  |  |  |  |  |  |  |  | COCC1CN(CC2CCN(Cc3ccccc3)CC2)C(=O)N(c2cccc(C(=N)N)c2)C1 (stereo unspecified) |
| 47 µM (≈ 20.5 µg/mL) | < 2 | 230 nM | 690 nM | 150 nM | 250 nM | 7400 nM | 580 nM | Dose-dependent effect |  |  |  |  |  |  |  |  |  | N=C(N)c1cccc(N2CC(CO)CN(CC3CCN(Cc4ccccc4)CC3)C2=O)c1 (stereo unspecified) |
|  |  | 520 nM | 670 nM | 340 nM | 610 nM | 17000 nM | 520 nM |  |  |  |  |  |  |  |  |  |  | N=C(N)c1cccc(N2CC(NS(=O)(=O)c3ccccc3)CN(CC3CCN(Cc4ccccc4)CC3)C2=O)c1 (stereo unspecified) |
| 91.6 µM (≈ 38.4 µg/mL) | -0.49 | 480 nM | 540 nM | 430 nM | 380 nM | 11600 nM | 530 nM | Dose-dependent effect | 4.93 h | < 1% | 4.45 ng/mL | 5.8 h | 3.31 ng·h/mL | 38 mL/min/kg | 2.7 h | 414 ng·h/mL | 4.49 L/kg | CC1CN(CC2CCN(Cc3ccccc3)CC2)C(=O)N(c2cccc(C(=N)N)c2)C1 (stereo unspecified) |
|  |  | 440 nM | 530 nM | 310 nM | 660 nM | 13400 nM | 350 nM |  |  |  |  |  |  |  |  |  |  | N=C(N)c1cccc(N2CC(NS(=O)(=O)Cc3ccccc3)CN(CC3CCN(Cc4ccccc4)CC3)C2=O)c1 (stereo unspecified) |
|  |  | 350 nM | 720 nM | 420 nM | 510 nM | > 100000 nM | 330 nM |  |  |  |  |  |  |  |  |  |  | CS(=O)(=O)NC1CN(CC2CCN(Cc3ccccc3)CC2)C(=O)N(c2cccc(C(=N)N)c2)C1 (stereo unspecified) |
|  |  | 380 nM | 1120 nM | 500 nM | 740 nM | 42300 nM | 1280 nM |  |  |  |  |  |  |  |  |  |  | N=C(N)c1cccc(N2CC(NC(=O)Cc3ccccc3)CN(CC3CCN(Cc4ccccc4)CC3)C2=O)c1 (stereo unspecified) |

From ChEMBL document CHEMBL3779883, “Design and Synthesis of Nonpeptide Inhibitors of Hepatocyte Growth Factor Activation” (ACS Med Chem Lett, 2016)
